Assay: xn = mol fraction of the nth substance listed
Conditions: Liquid; for viscosity / speed of sound: 101 kPa; for viscosity: Capillary tube (Ostwald / Ubbelohde) method; for speed of sound: Frequency=2 MHz, Pulse-echo method; for mass density: 101.33 kPa, Vibrating tube method

N#CCc1ccccc1 [benzeneacetonitrile] + ClC=C(Cl)Cl
Conditions	mass density, 303.15 K [kg/m3]	mass density, 308.15 K [kg/m3]	mass density, 313.15 K [kg/m3]	speed of sound, 303.15 K [m/s]	speed of sound, 308.15 K [m/s]	speed of sound, 313.15 K [m/s]	viscosity, 303.15 K [mPa·s]	viscosity, 308.15 K [mPa·s]	viscosity, 313.15 K [mPa·s]
x1 = 0.0195	1437	1428.5	1420	1024.6	1004.9	992.5	0.5201	0.486	0.4908
x1 = 0.119	1383.8	1377.2	1369.5	1073.5	1057.5	1045.8	0.5905	0.553	0.5292
x1 = 0.2263	1329.5	1323.9	1316.9	1128.2	1114.1	1102.9	0.6901	0.6417	0.6092
x1 = 0.3478	1271.9	1266.3	1260.1	1191	1179.2	1169.9	0.82	0.7558	0.715
x1 = 0.4396	1230.2	1225	1219.2	1238.9	1228.9	1221.9	0.9316	0.8529	0.7976
x1 = 0.5443	1184.5	1179.6	1174.2	1293.3	1284.6	1279.3	1.066	0.9721	0.9137
x1 = 0.6782	1128.8	1124.7	1119.5	1364.1	1356.5	1351	1.248	1.147	1.075
x1 = 0.819	1074.1	1070.3	1064.9	1435.8	1428.4	1425	1.456	1.339	1.248
x1 = 0.9692	1019.7	1015.3	1010.2	1504.1	1502.7	1499.2	1.698	1.546	1.439
x1 = 1	1008.8	1004.1	999.5	1519.2	1512.9	1503.4	1.761	1.602	1.489
